Experimental data taken from patent US9024044B2, “Heteroarylcarboxylic acid ester derivative” (Ajinomoto Co., Inc., priority 2012, dated 2015).
Where a name gives a salt, the structure may show the parent alone.

Assays:
human trypsin = human trypsin (Homo sapiens, UniProt P07477); test: Measurement of trypsin inhibitory activity; assay type: biochemical; details: substrate Boc-Phe-Ser-Arg-AMC, Tris-HCl pH 8.0, Dixon plot
Protocol: Measurement of Trypsin Inhibitory Activity
Using a 96 well plate (#3915, Costar), a test compound (25 μL) was mixed with 20 μM fluorescence enzyme substrate (Boc-Phe-Ser-Arg-AMC, 50 μL) mixed with 200 mM Tris-HCl buffer (pH 8.0), and human trypsin (Sigma, 25 μL) was added. Using a fluorescence plate reader fmax (Molecular Devices, Inc.), the reaction rate was measured from the time-course changes at excitation wavelength 355 nm and fluorescence wavelength 460 nm. The Ki value was calculated from the concentration of the test compound, reciprocal of reaction rate, and Km value of the enzyme substrate, and by using Dixon plot.

[1] = molecular target: recombinant human enteropeptidase (Homo sapiens (Human), UniProt P98073); test: Measurement of enteropeptidase inhibitory activity; assay type: biochemical; details: substrate Gly-Asp-Asp-Asp-Asp-Lys-β-Naphtylamide, Tris-HCl pH 8.0, Dixon plot
Chain of recombinant human enteropeptidase (P98073 whole entry): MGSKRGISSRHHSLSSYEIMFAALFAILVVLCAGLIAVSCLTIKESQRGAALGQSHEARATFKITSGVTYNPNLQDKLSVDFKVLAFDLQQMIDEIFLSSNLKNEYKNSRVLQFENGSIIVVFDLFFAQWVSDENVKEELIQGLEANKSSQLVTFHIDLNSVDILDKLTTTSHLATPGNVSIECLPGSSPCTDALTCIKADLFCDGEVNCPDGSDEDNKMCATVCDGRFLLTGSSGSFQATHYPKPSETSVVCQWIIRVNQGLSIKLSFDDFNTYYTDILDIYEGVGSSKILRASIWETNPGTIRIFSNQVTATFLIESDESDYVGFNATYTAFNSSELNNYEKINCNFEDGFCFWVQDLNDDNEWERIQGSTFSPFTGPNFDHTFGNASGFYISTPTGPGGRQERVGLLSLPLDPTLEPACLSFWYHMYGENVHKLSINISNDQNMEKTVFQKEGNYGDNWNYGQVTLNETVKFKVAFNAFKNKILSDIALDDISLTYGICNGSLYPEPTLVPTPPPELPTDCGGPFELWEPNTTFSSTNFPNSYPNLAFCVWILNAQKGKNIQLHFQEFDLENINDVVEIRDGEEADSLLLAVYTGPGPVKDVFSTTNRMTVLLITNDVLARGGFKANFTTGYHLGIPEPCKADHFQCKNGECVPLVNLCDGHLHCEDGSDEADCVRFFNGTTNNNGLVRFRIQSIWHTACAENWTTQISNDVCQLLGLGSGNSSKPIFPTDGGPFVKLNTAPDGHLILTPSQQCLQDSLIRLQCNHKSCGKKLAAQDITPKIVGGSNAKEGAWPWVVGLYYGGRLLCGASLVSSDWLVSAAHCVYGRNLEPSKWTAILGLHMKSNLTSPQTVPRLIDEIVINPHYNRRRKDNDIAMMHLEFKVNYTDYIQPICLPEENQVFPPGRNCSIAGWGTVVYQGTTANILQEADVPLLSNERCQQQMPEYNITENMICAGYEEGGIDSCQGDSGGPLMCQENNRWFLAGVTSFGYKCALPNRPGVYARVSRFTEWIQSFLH
Protocol: Measurement of Enteropeptidase Inhibitory Activity
Using a 96 well plate (#3915, Costar), a test compound (25 μL), 400 mM Tris-HCl buffer (pH 8.0, 25 μL) and 0.5 mg/mL fluorescence enzyme substrate (Gly-Asp-Asp-Asp-Asp-Lys-β-Naphtylamide, 25 μL) were mixed, and recombinant human enteropeptidase (R&D Systems, Inc., 25 μL) was added. Using a fluorescence plate reader fmax (Molecular Devices, Inc.), the reaction rate was measured from the time-course changes at excitation wavelength 320 nm and fluorescence wavelength 405 nm. The Ki value was calculated from the concentration of the test compound, reciprocal of reaction rate, and Km value of the enzyme substrate, and by using Dixon plot.

Row | SMILES | Ki (human trypsin) [nM] | Ki [1] [nM]
1 | CC(C)(Cc1ccc(C(=O)Oc2ccc(C(=N)N)cc2F)s1)C(=O)N[C@@H](C(=O)O)c1ccccc1 [Compound 38] | 1.45 | 0.97
2 | CCC(CC)(Cc1ccc(C(=O)Oc2ccc(C(=N)N)cc2F)s1)C(=O)NCCC[C@H](N)C(=O)O [Compound 52] | 5.78 | 5.53
3 | CC(C)(Cc1ccc(C(=O)Oc2ccc(C(=N)N)cc2F)s1)C(=O)Nc1cccnc1 [Compound 39] | 3.6 | 7.56
4 | CC(C)(Cc1ccc(C(=O)Oc2ccc(C(=N)N)cc2F)s1)C(=O)Nc1ccc[nH]c1=O [Compound 40] | 4.54 | 6.66
5 | CN(CC(=O)O)C(=O)C(C)(C)Cc1ccc(C(=O)Oc2ccc(C(=N)N)cc2F)s1 [Compound 7] | 1.33 | 0.41
6 | CC(C)(Cc1ccc(C(=O)Oc2ccc(C(=N)N)cc2F)s1)C(=O)NC(C)(C)C(=O)O [Compound 6] | 0.95 | 0.69
7 | CCC(CC)(Cc1ccc(C(=O)Oc2ccc(C(=N)N)cc2F)s1)C(=O)Nc1ccc(CC(=O)O)cc1 [Compound 48] | 3.35 | 2.41
8 | CCC(CC)(Cc1ccc(C(=O)Oc2ccc(C(=N)N)cc2F)s1)C(=O)NCCC(=O)O [Compound 14] | 2.5 | 0.99
9 | CC(C)(Cc1ccc(C(=O)Oc2ccc(C(=N)N)cc2F)s1)C(=O)N[C@@H](C(=O)O)C1CCCCC1 [Compound 36] | 3.07 | 4.7
10 | CC(C)(Cc1ccc(C(=O)Oc2ccc(C(=N)N)cc2F)s1)C(=O)Nc1ccc(C(=O)O)c(C(=O)O)c1 [Compound 68] | 0.21 | 0.24
11 | CCC(CC)(Cc1ccc(C(=O)Oc2ccc(C(=N)N)cc2F)s1)C(=O)NC1(C(=O)O)CC1 [Compound 79] | 2.19 | 1.12
12 | C=CCN(CC(=O)O)C(=O)C(C)(C)Cc1ccc(C(=O)Oc2ccc(C(=N)N)cc2F)s1 [Compound 5] | 0.5 | 0.24
13 | CC(C)(Cc1ccc(C(=O)Oc2ccc(C(=N)N)cc2F)s1)C(=O)Nc1cc(C(=O)O)ccc1C(=O)O [Compound 75] | 3.72 | 0.39
14 | COc1ccc(NC(=O)C(C)(C)Cc2ccc(C(=O)Oc3ccc(C(=N)N)cc3F)s2)cn1 [Compound 45] | 3.36 | 4.13
15 | CC(C)(Cc1ccc(C(=O)Oc2ccc(C(=N)N)cc2F)s1)C(=O)N1CCc2ccc(C(=O)O)cc2C1 [Compound 50] | 3.49 | 3.46
16 | N=C(N)c1ccc(OC(=O)c2ccc(CC3(C(=O)N[C@@H](CC(=O)O)C(=O)O)CCC3)s2)c(F)c1 [Compound 1, N-[1{5-(4-amidino-2-fluorophenoxycarbonyl)thiophen-2-ylmethyl}-cyclobutylcarbonyl]-1-aspartic acid trifluoroacetic acid salt] | 0.61 | 0.14
17 | CC(C)(Cc1ccc(C(=O)Oc2ccc(C(=N)N)cc2F)s1)C(=O)Nc1ccccc1C(=O)O [Compound 73] | 3.65 | 2.41
18 | CC(C)(Cc1ccc(C(=O)Oc2ccc(C(=N)N)cc2F)s1)C(=O)N1CCC[C@H]1C(=O)O [Compound 8] | 1.69 | 0.87
19 | CCC(CC)(Cc1ccc(C(=O)Oc2ccc(C(=N)N)cc2F)s1)C(=O)N1CCC[C@H]1C(=O)O [Compound 17] | 6.38 | 1.69
20 | CCC(CC)(Cc1ccc(C(=O)Oc2ccc(C(=N)N)cc2F)s1)C(=O)NCCCCCC(=O)O [Compound 71] | 8.01 | 4.97
21 | CCC(CC)(Cc1ccc(C(=O)Oc2ccc(C(=N)N)cc2F)s1)C(=O)N[C@@H](CCC(N)=O)C(=O)O [Compound 42] | 3.88 | 1.69

Row | SMILES | Ki (human trypsin) [nM] | Ki [1] [nM]
22 | CC(C)(Cc1ccc(C(=O)Oc2ccc(C(=N)N)cc2F)s1)C(=O)Nc1cc(C(=O)O)cc(C(=O)O)c1 [Compound 59] | 0.49 | 0.31
23 | CCC(CC)(Cc1ccc(C(=O)Oc2ccc(C(=N)N)cc2F)s1)C(=O)N[C@@H](C)C(=O)O [Compound 27] | 1.67 | 0.73
24 | CC(C)(Cc1ccc(C(=O)Oc2ccc(C(=N)N)cc2F)s1)C(=O)N1CC(C(=O)O)C1 [Compound 72] | 1.85 | 0.63
25 | CC(C)(Cc1ccc(C(=O)Oc2ccc(C(=N)N)cc2F)s1)C(=O)N1CCC(C(=O)O)CC1 [Compound 26] | 3.1 | 1.33
26 | CC(C)(Cc1ccc(C(=O)Oc2ccc(C(=N)N)cc2F)s1)C(=O)N[C@H](C(=O)O)c1ccccc1 [Compound 37] | 1.51 | 0.96
27 | CCC(CC)(Cc1ccc(C(=O)Oc2ccc(C(=N)N)cc2F)s1)C(=O)N[C@H](CO)C(=O)O [Compound 12] | 1.78 | 0.94
28 | CC(C)(Cc1ccc(C(=O)Oc2ccc(C(=N)N)cc2F)s1)C(=O)N1C[C@@H]1C(=O)O [Compound 54] | 1.53 | 1.76
29 | CCC(CC)(Cc1ccc(C(=O)Oc2ccc(C(=N)N)cc2F)s1)C(=O)Nc1cc(C(=O)O)cc(C(=O)O)c1 [Compound 66] | 1.58 | 0.71
30 | CC(C)(Cc1ccc(C(=O)Oc2ccc(C(=N)N)cc2F)s1)C(=O)N1C[C@H]1C(=O)O [Compound 61] | 0.96 | 1.13
31 | CCC(CC)(Cc1ccc(C(=O)Oc2ccc(C(=N)N)cc2F)s1)C(=O)Nc1cc(C(=O)O)cc(C(=O)OC)c1 [Compound 67] | 4.4 | 3.73
32 | COc1ncccc1NC(=O)C(C)(C)Cc1ccc(C(=O)Oc2ccc(C(=N)N)cc2F)s1 [Compound 51] | 1.87 | 3.75
33 | CC(C)(Cc1ccc(C(=O)Oc2ccc(C(=N)N)cc2F)s1)C(=O)NCCc1nnn[nH]1 [Compound 64] | 1.6 | 0.53
34 | CC(C)(Cc1ccc(C(=O)Oc2ccc(C(=N)N)cc2F)s1)C(=O)N[C@@H](C(=O)O)c1ccc(O)cc1 [Compound 69] | 1.14 | 0.72
35 | CCC(CC)(Cc1ccc(C(=O)Oc2ccc(C(=N)N)cc2F)s1)C(=O)N[C@H](C(=O)O)C(C)O (stereo partly drawn) [Compound 15] | 1.74 | 0.84
36 | CCC(CC)(Cc1ccc(C(=O)Oc2ccc(C(=N)N)cc2F)s1)C(=O)N[C@@H](CC(=O)O)C(=O)O [Compound 19] | 0.82 | 0.33
37 | CC(C)[C@H](NC(=O)C(C)(C)Cc1ccc(C(=O)Oc2ccc(C(=N)N)cc2F)s1)C(=O)O [Compound 9, N-{3-[5-(4-amidino-2-fluoro-phenoxycarbonyl)thiophen-2-yl]-2,2-dimethylpropionyl}-1-valine hydrochloride] | 2.02 | 0.79
38 | CC(C)(Cc1ccc(C(=O)Oc2ccc(C(=N)N)cc2F)s1)C(=O)NC(CCC(=O)O)(CCC(=O)O)CCC(=O)O [Compound 58] | 1.59 | 0.71
39 | CCC(CC)(Cc1ccc(C(=O)Oc2ccc(C(=N)N)cc2F)s1)C(=O)N(C)CC(=O)O [Compound 21, N-{3-[5-(4-amidino-2-fluoro-phenoxycarbonyl)thiophen-2-yl]-2,2-diethylpropionyl}-sarcosine hydrochloride] | 1.76 | 0.88
40 | CC(C)(Cc1ccc(C(=O)Oc2ccc(C(=N)N)cc2F)s1)C(=O)N[C@H]1CC[C@H](C(=O)O)CC1 [Compound 78] | 2.57 | 1.53
41 | CCC(CC)(Cc1ccc(C(=O)Oc2ccc(C(=N)N)cc2F)s1)C(=O)N[C@H](CC(=O)O)C(=O)O [Compound 25] | 1.04 | 0.26
42 | CC(C)(Cc1ccc(C(=O)Oc2ccc(C(=N)N)cc2F)s1)C(=O)N1CC(F)(F)C1 [Compound 46] | 3.89 | 5.27
